Laboratory results as given in a melting point compilation (Tetko et al.; mined from patent text by program, amines drawn as free bases though some values may be those of a salt).

Row | melting point [°C] | SMILES
1 | 97 to 99 | CCn1nccc1NC(=O)c1ccc(OC)c2oc(COC)cc12
2 | 140 | CCOc1ccc2c(c1)n(C1CCCC1)c(=O)n2Cc1ccc(NC(=O)N(CC)CC)cc1OC
3 | 70 to 72 | O=C(OCCl)c1c(Cl)cccc1Cl
4 | 101 to 103 | O=C(NOCC(O)CN1CCCCC1)Nc1ccccc1 (configuration not stated)
5 | 148 | COC(=O)c1scc(-c2ccccc2OC)c1-n1cccc1
6 | 166 to 167 | CCc1nn(Cc2ccccn2)c2c(=O)[nH]c(-c3cc(S(C)(=O)=O)ccc3OCCOC)nc12
7 | 46 to 47 | Cc1c(Cc2cccc(C(F)(F)F)c2)sc2c(-c3cc(F)cc(C(=O)NCC(N)=O)c3)cccc12
8 | 162 to 164 | C[C@@H](Cn1ncc2ccc3oc(C(N)=O)nc3c21)N=[N+]=[N-]
9 | 208 | CC(C)(C)Sc1c(CC(C)(C)C(=O)O)n(Cc2ccc(Cl)cc2)c2ccc(OCc3ccc4ccccc4n3)cc12
10 | 142 | O=C(CC(=O)c1ccccc1Cl)Nc1ccccc1
11 | 175 to 180 | C#CC[C@@H](N)c1nc2cc(Cl)ccc2c(=O)n1Nc1ccccc1
12 | 146 to 149 | CCOC(=O)c1ccc(OC(F)F)cc1S(=O)(=O)NC(=O)Nc1nc(OC)cc(OC)n1
13 | 152 to 153 | CCCCc1oc2ccc(C#N)cc2c1C(=O)c1ccc(O)cc1
14 | 209 to 212 | O=C(O)c1cn(C2CC2)c2nc(Cl)c(F)cc2c1=O
15 | 208 to 209 | Cc1c(F)cccc1Cc1c(-c2ccccc2)c2cc(C=O)cnn2c1C(=O)N1CCN(C(=O)OC(C)(C)C)CC1
16 | 38 to 39 | Fc1cc(Cl)cnc1Cl
17 | 86.5 | CC(C)c1nc(N(C)S(C)(=O)=O)nc(-c2ccc(F)cc2)c1/C=C/C=O
18 | < -70 | CO[Si](OC)(OC)O[Si](OC)(OC)O[Si](OC)(OC)OC
19 | 217 to 219 | COC(=O)c1ccc(NC2CCCCC2)cc1C(=O)OC
20 | 176 to 177 | NC(=O)c1cc2c(Oc3ccc(Cl)cc3)cncc2s1
21 | 63 to 68 | Cc1nn(C)c(O)c1C(=O)c1ccc(Cl)c(OCCn2cnnn2)c1Cl
22 | 71 to 72 | CCC(=O)OC(C)c1ccc(O)cc1 (single isomer, unassigned; (+))
23 | 144 to 146 | CCOC(=O)c1cccc(NC(=O)c2ccc(OC)c(N)c2)c1
24 | 79 to 80 | CC(=O)C=Cc1ccc(Cl)cc1Cl

Row | melting point [°C] | SMILES
25 | 119 | Cc1nc(-c2ccc(N3CC(CN4CCN(C(CC(=O)OCc5ccccc5)C(=O)OCc5ccccc5)CC4)OC3=O)cc2)no1 (configuration not stated)
26 | 88 to 89.5 | COc1ccc(Oc2ccc(OCc3ccccc3)cc2)c([N+](=O)[O-])c1
27 | 86 to 88 | CC(=O)c1cccc2nc(SCCCN3CCCN(CC(=O)Nc4c(C(C)C)cccc4C(C)C)CC3)oc12
28 | 145 to 146 | Cn1cc(-c2cccc(F)c2)c(=O)c(-c2cccc(Cl)c2)c1
29 | 164 | NC(=O)n1c(S(=O)Cc2ccccn2)nc2ccccc21 (configuration not stated)
30 | 261 to 263 | CC1Cc2cc3c(cc2C(c2ccc([N+](=O)[O-])cc2)=NN1c1ncccn1)OCO3 (configuration not stated)
31 | 164 to 165 | O=C1c2ccccc2C(=O)N1Cc1ccncc1
32 | 291 to 292 | CN1CCN(Cc2cc(NC(=O)Nc3ccc(Oc4cc(Cl)ncn4)cc3)cc(C(F)(F)F)c2)CC1
33 | 112 to 114 | COc1ccc2c(c1)CCN(C(=O)Cc1ccc([N+](=O)[O-])cc1)C2C (configuration not stated)
34 | 104 to 106 | CCCC1c2c(ccc(C(C)=O)c2O)OC1COc1ccc(CC(=O)O)cc1 (configuration not stated)
35 | 123 to 125 | CCOC(=O)C1=Cc2cc(OC(F)(F)F)ccc2NC1C(F)(F)F (configuration not stated)
36 | 108 to 110 | CSc1nn(-c2c(Cl)cc(Cl)cc2Cl)c(N(C)C)c1CO
37 | 52 to 60 | COC(=O)Cc1ccc(OCCNC(=O)C2Cc3ccccc3N2S(=O)(=O)c2ccc(-c3cccc(C(F)(F)F)c3)cc2)c(OC)c1 (configuration not stated)
38 | 150 to 151 | c1cc(CN2CCCCC2)cc(OCCCNc2nnc3ccccn23)c1
39 | 147 to 148 | CCCCCC(CC(=O)Nc1cc(CO)ccc1C(C)(C)C)c1ccccc1C(F)(F)F (configuration not stated)
40 | 247 to 248 | Cn1cc(-c2cc3cccnc3[nH]2)c2cc(N)ccc21
41 | 193 to 195 | OCC1OC(n2cnc3c(Nn4cccc4)ncnc32)C(O)C1O (configuration not stated)
42 | 237 to 238 | Cn1c(=O)[nH]c2ccc(Br)cc21
43 | 74 to 75 | O=[N+]([O-])c1ccc(C=C(Cl)Cl)o1
44 | 232 to 234 | Cc1cccc(-c2n[nH]cc2-c2ccnc(-c3ccc(S(C)(=O)=O)cc3)c2)n1
45 | 95 to 96 | COC(=O)[C@H](Cc1ccc([N+](=O)[O-])cc1)NC(=O)OC(C)(C)C
46 | 148 to 150 | COc1ccc(/C=C/S(=O)(=O)CS(=O)(=O)/C=C/c2ccc(OC)c(O)c2)cc1O
47 | 135 | COC(=O)c1cc(OCc2ccccc2)c(OCc2ccccc2)c(CSCC(=O)O)n1
48 | 82 to 83 | Cc1ccc(C)c(OCCCC(C)(C)C(=O)Nc2c(F)cc(F)cc2F)c1

Row | melting point [°C] | SMILES
49 | 119 | CC(C)(C)c1cc(CC(C)(C)C2SCCS2)cc(C(C)(C)C)c1O
50 | 133 to 134 | O=C(O)CCCC(Nc1ccccc1)c1ccc(Cl)cc1 (configuration not stated)
51 | 88 to 90 | N#CS/C=C\C(=O)N1CCCCC1
52 | 260 to 265 | O=C(O)c1ccc(/C=C/C(=O)c2ccc(-c3cccs3)cc2)cc1
53 | 92 to 93 | CC(C)C(NC(=O)OCc1nccs1)C(=O)NC(Cc1ccccc1)C(O)C(Cc1ccccc1)NC(=O)C(NC(=O)OCc1nccs1)C(C)C (configuration not stated)
54 | 58 to 59 | CC(C)Cc1cc2cc(O)c(Cl)c(Cl)c2s1
55 | 72 to 74.5 | Cc1c(Cl)c(C(F)(F)F)nn1-c1cc(OS(C)(=O)=O)c(Cl)cc1F
56 | 117 to 119 | O=C(O)CCc1ccc(-c2cccc(-c3ccnc4c(C(=O)c5cccs5)cnn34)c2)cc1
57 | 213 to 215 | O=C(Nc1cccc(C(F)(F)F)c1)Nc1ccc2[nH]c(C(F)(F)F)nc2c1
58 | 122 to 123 | O=C1/C(=C(\NCCO)c2ccccc2)Sc2ccccc21
59 | 87 to 88 | CC(C)(C)[Si](OCCCc1ccc(OCC(=O)O)cc1)(c1ccccc1)c1ccccc1
60 | 194 to 195 | O=C(O)c1cc2c3ccccc3n(Cc3ccccc3)c2s1
61 | 76 to 78 | CN(C)CCCC(=O)Cc1ccc2c(c1)Cc1cccnc1O2
62 | 182 to 184 | Cc1cc2c(s1)C(C(=O)Nc1ccccc1)C(=O)N(C)S2(=O)=O (configuration not stated)
63 | 280 to 287 | CC(C)c1ccc2nc3ccc(C(=O)O)cn3c(=O)c2c1
64 | 168 | CC(=O)OC1CSC(Oc2cccnc2C(C)=O)C(OC(C)=O)C1OC(C)=O (configuration not stated)
65 | 106 to 110 | CC(C)NCC(O)COc1cccc2c1CC1OC1C2 (configuration not stated)
66 | 84 to 87 | CCCc1c(N)ccc2c(=O)cc(C(=O)OCC)oc12
67 | 175 | Cc1ccc(-c2cc(-c3ccccc3)n[nH]2)cc1
68 | 183 to 184 | CC(C)(Sc1nc(N)cc(Cl)n1)c1ccccn1
69 | 70 to 71 | Cc1cc2ccccc2n1-c1ccc(OCc2ccccc2)c(F)c1
70 | 107 | COP(=O)(Cc1cc(Cl)c(O)c(C(C)(C)C)c1)OC
71 | 123 to 124 | O=C(c1ccccc1)C1CCN(Sc2ccncc2)CC1
72 | 134 to 137 | O=[N+]([O-])c1cc([N+](=O)[O-])c(N(SC(Cl)(Cl)Cl)c2cc(C(F)(F)F)ccc2Cl)c(C(F)(F)F)c1

Row | melting point [°C] | SMILES
73 | 94 to 95 | OCc1nn(-c2ccccc2)c2c1CCC2
74 | 40 to 42 | CC(C)(C)[C@H]1OC(=O)[C@H](c2cccc(Cl)c2)O1
75 | 70 to 72 | Cc1cccc(-c2[nH]c(C(C)C)nc2-c2cccc(-c3ccc(F)cc3F)c2)n1
76 | 195 to 197 | OCc1ccc(-c2ccc(CO)cc2)cc1
77 | 225 to 228 | CNS(=O)(=O)c1ccc(C2CCN(c3ccncc3)CC2)cc1
78 | 155 | CC(C)(C)OC(=O)N1CCC(c2cn(-c3ccc(F)cc3)c3ccc(C#N)cc23)CC1
79 | 133 to 134 | CCC(=O)Nc1cc(C2=NCCO2)ccc1OCCCCCc1cc(C)no1
80 | 159 to 160 | CCOP(=O)(/C=C/c1cn(-c2ccccc2)nc1OCc1ccc(OCc2nc(N3CCC(C(=O)O)CC3)sc2C)c(OC)c1)OCC
81 | 220 to 221 | CCCNC(=O)Cn1c(-c2ccc(Cl)cc2)nc2cccnc21
82 | 171 to 173 | Cn1ncnc1COc1nn2c(-c3ccccc3F)nncc2c1-c1cc(F)cc(F)c1
83 | 134 to 137 | O=c1n(Cc2ccc([N+](=O)[O-])cc2)c2ccccc2n1Cc1ccc(C(F)(F)F)cc1
84 | 201 to 202 | CCOC(=O)c1sc(-c2ccc3c(=O)n(CC(C)C)c(CNC(=O)OC(C)(C)C)c(-c4ccccc4)c3c2)nc1C
85 | 84 to 84.5 | CC(C)C[C@@H]1OC(O)[C@H](Cc2ccccc2)NC1=O (some centres not stated)
86 | 44 to 54 | C[C@H]1CCCC(C)(C)[C@@H]1C(=O)O
87 | 75 to 77 | Cn1c(=O)c2ccsc2n(CC2CC2)c1=O
88 | 182 to 184 | COc1ccc(Oc2c(-c3ccc(S(C)(=O)=O)cc3)cnn(-c3cccc(Cl)c3)c2=O)cc1
89 | 104 to 110 | CCCCC1=NC2(CCCC2)C(=O)N1Cc1ccc(-c2ccccc2S(=O)(=O)Nc2onc(C)c2C)c(CN2CCC(C)(C)C2=O)c1
90 | 198 to 200 | N#Cc1cc(-c2ccoc2)c2ccc(COc3cc(F)cc(-c4ccccn4)c3)cc2n1
91 | 150 | CCOC(=O)N1CCC(Nc2ccc(Cl)cc2N)CC1
92 | 118 to 119 | COCCOc1cc(NC(=O)OC(C)(C)C)c([N+](=O)[O-])cc1C#Cc1ccccc1
93 | 120 | CC(=O)c1ccc(C(=O)NC/C=C/c2ccccc2)cc1
94 | 120 to 122 | Clc1ccc(Oc2nc(Cl)nc(Cl)n2)c(Cl)c1
95 | 98 to 100 | CC(C)(OCc1cc2cc(C(F)(F)F)ccc2n1S(=O)(=O)c1ccc2ncsc2c1)C(=O)O

Row | SMILES | melting point [°C]
96 | CCOC(=O)CCCN1C(=O)N(c2ccc(C#N)c(C(F)(F)F)c2)C(=O)C12CCOCC2 | 129 to 130
97 | CN(C)C1(c2ccccc2)CCC(=CC(=O)NCCCc2ccccc2)CC1 (configuration not stated) | 140 to 142
